Square brackets hold non-standard residues; d marks the D form. Peptide text beside a SMILES is read from it. * marks the point of attachment. Hyp(2-Ph-quinolin-4-yl) = O=C(O)[C@@H]1C[C@@H](Oc2cc(-c3ccccc3)nc3ccccc23)CN1; Hyp(quinolin-4-yl) = O=C(O)[C@@H]1C[C@@H](Oc2ccnc3ccccc23)CN1; Ac3c(1R,2S-2-vinyl) = C=C[C@@H]1C[C@]1(N)C(=O)O; Hyp = O=C(O)[C@@H]1C[C@@H](O)CN1; Chg = N[C@H](C(=O)O)C1CCCCC1; X1 = c1ccc2cc(C*)ccc2c1
Assays:
[1] = Inhibition of HCV NS3 protease; parameters: species or system Hepacivirus hominis
Neutrophil elastase = molecular target: T1, Neutrophil elastase (Homo sapiens, UniProt P08246); assay: Inhibition of human leucocyte elastase
T1 sequence (P08246 whole entry): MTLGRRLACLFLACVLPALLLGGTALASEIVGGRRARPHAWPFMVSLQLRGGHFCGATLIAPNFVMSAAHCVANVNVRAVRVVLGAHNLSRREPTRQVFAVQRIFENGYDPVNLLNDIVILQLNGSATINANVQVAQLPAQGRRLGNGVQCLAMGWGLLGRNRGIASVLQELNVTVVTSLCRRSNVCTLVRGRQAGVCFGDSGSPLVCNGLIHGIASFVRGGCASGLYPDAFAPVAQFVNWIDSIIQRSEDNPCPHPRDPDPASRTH

Hepatitis C virus = assay: Antiviral activity in Huh7 cells containing sub-genomic HCV subtype 1b replicon by RT-PCR; assay type: functional, organism-based, Hepacivirus hominis; details: genotype 1b, Huh-7
Cathepsin B = Cathepsin B (Homo sapiens, UniProt P07858); assay: Inhibition of human cathepsin B

Row | SMILES | IC50 [1] [µM] | also measured
1 | C=C[C@@H]1C[C@]1(NC(=O)[C@@H]1C[C@@H](Oc2cc(-c3ccccc3)nc3cc(OC(F)(F)F)ccc23)CN1C(=O)[C@@H](NC(=O)OC(C)(C)C)C(C)(C)C)C(=O)O | 0.79 | –
2 | C=C[C@@H]1C[C@]1(NC(=O)[C@@H]1C[C@@H](Oc2cc(-c3ccccc3)nc3ccccc23)CN1C(=O)[C@@H](NC(=O)OC(C)(C)C)C(C)(C)C)C(=O)O | 0.15 | –
3 | C=C[C@@H]1C[C@]1(NC(=O)[C@@H]1C[C@@H](Oc2cc(-c3ccccc3)nc3cc(SC)ccc23)CN1C(=O)[C@@H](NC(=O)OC(C)(C)C)C(C)(C)C)C(=O)O | 0.139 | –
4 | C=C[C@@H]1C[C@]1(NC(=O)[C@@H]1C[C@@H](Oc2cc(-c3ccccc3)nc3cc(Br)ccc23)CN1C(=O)[C@@H](NC(=O)OC(C)(C)C)C(C)(C)C)C(=O)O | 0.35 | –
5 | C=C[C@@H]1C[C@]1(NC(=O)[C@@H]1C[C@@H](Oc2cc(-c3ccccc3)nc3cc(C(F)(F)F)ccc23)CN1C(=O)[C@@H](NC(=O)OC(C)(C)C)C(C)(C)C)C(=O)O | 0.828 | –
6 | C=C[C@@H]1C[C@]1(NC(=O)[C@@H]1C[C@@H](Oc2cc(-c3ccccc3)nc3c(OC)c(OC)ccc23)CN1C(=O)[C@@H](NC(=O)[C@@H](NC(C)=O)C1CCCCC1)C(C)C)C(=O)O | 0.013 | –
7 | C=C[C@@H]1C[C@]1(NC(=O)[C@@H]1C[C@@H](Oc2cc(-c3ccccc3)nc3cccc(OC)c23)CN1C(=O)[C@@H](NC(=O)[C@@H](NC(C)=O)C1CCCCC1)C(C)C)C(=O)O | 0.557 | –
8 | C=C[C@@H]1C[C@]1(NC(=O)[C@@H]1C[C@@H](Oc2cc(-c3ccccc3)nc3cc(OC(C)C)ccc23)CN1C(=O)[C@@H](NC(=O)OC(C)(C)C)C(C)(C)C)C(=O)O | 0.228 | –
9 | C=C[C@@H]1C[C@]1(NC(=O)[C@@H]1C[C@@H](Oc2cc(-c3ccccc3)nc3cc(NC(C)=O)ccc23)CN1C(=O)[C@@H](NC(=O)OC(C)(C)C)C(C)(C)C)C(=O)O | 0.029 | –
10 | C=C[C@@H]1C[C@]1(NC(=O)[C@@H]1C[C@@H](Oc2cc(-c3ccccc3)nc3cc(F)ccc23)CN1C(=O)[C@@H](NC(=O)OC(C)(C)C)C(C)(C)C)C(=O)O | 0.282 | –
11 | C=C[C@@H]1C[C@]1(NC(=O)[C@@H]1C[C@@H](Oc2cc(-c3ccccc3)nc3cc(C(=O)O)ccc23)CN1C(=O)[C@@H](NC(=O)OC(C)(C)C)C(C)(C)C)C(=O)O | > 1 | –
12 | C=C[C@@H]1C[C@]1(NC(=O)[C@@H]1C[C@@H](Oc2cc(-c3ccccc3)nc3c(OC)cccc23)CN1C(=O)[C@@H](NC(=O)[C@@H](NC(C)=O)C1CCCCC1)C(C)C)C(=O)O | 0.005 | –
13 | C=C[C@@H]1C[C@]1(NC(=O)[C@@H]1C[C@@H](Oc2ccnc3cc(OC)ccc23)CN1C(=O)[C@@H](NC(=O)[C@@H](NC(C)=O)C1CCCCC1)C(C)C)C(=O)O | 0.01 | –
14 | C=C[C@@H]1C[C@]1(NC(=O)[C@@H]1C[C@@H](Oc2cc(-c3ccccc3)nc3ccccc23)CN1C(=O)[C@@H](NC(=O)[C@@H](NC(C)=O)C1CCCCC1)C(C)C)C(=O)O (Ac-[Chg]V[Hyp(2-Ph-quinolin-4-yl)][Ac3c(1R,2S-2-vinyl)]-OH) | 0.013 | IC50 (Cathepsin B): > 30 µM; IC50 (Neutrophil elastase): > 30 µM
15 | C=C[C@@H]1C[C@]1(NC(=O)[C@@H]1C[C@@H](Oc2ccnc3ccccc23)CN1C(=O)[C@@H](NC(=O)[C@@H](NC(C)=O)C1CCCCC1)C(C)C)C(=O)O (Ac-[Chg]V[Hyp(quinolin-4-yl)][Ac3c(1R,2S-2-vinyl)]-OH) | 0.17 | –
16 | C=C[C@@H]1C[C@]1(NC(=O)[C@@H]1C[C@@H](OCc2ccc3ccccc3c2)CN1C(=O)[C@@H](NC(=O)[C@@H](NC(C)=O)C1CCCCC1)C(C)C)C(=O)O (Ac-[Chg]V[Hyp](X1)[Ac3c(1R,2S-2-vinyl)]-OH) | 0.6 | –

Now from value to compound, other results behind:

Row | IC50 [1] [µM] | SMILES | also measured
17 | 0.002 | C=C[C@@H]1C[C@]1(NC(=O)[C@@H]1C[C@@H](Oc2cc(-c3ccccc3)nc3cc(OC)ccc23)CN1C(=O)[C@@H](NC(=O)[C@@H](NC(C)=O)C1CCCCC1)C(C)C)C(=O)O | –
18 | 0.029 | C=C[C@@H]1C[C@]1(NC(=O)[C@@H]1C[C@@H](Oc2cc(-c3ccccc3)nc3cc(OC)ccc23)CN1C(=O)[C@@H](NC(=O)OC(C)(C)C)C(C)(C)C)C(=O)O | IC50 (Neutrophil elastase): > 75 µM; EC50 (Hepatitis C virus): 0.66 µM
19 | 0.014 | C=C[C@@H]1C[C@]1(NC(=O)[C@@H]1C[C@@H](Oc2cc(-c3ccccc3)nc3cc(OC)ccc23)CN1C(=O)[C@@H](NC(=O)OC1CCCC1)C(C)(C)C)C(=O)O | –
20 | 0.001 | C=C[C@@H]1C[C@]1(NC(=O)[C@@H]1C[C@@H](Oc2cc(-c3ccccc3)nc3cc(OC)ccc23)CN1C(=O)[C@@H](NC(=O)[C@@H](NC(C)=O)C1CCCCC1)C(C)(C)C)C(=O)O | –
21 | 0.037 | C=C[C@@H]1C[C@]1(NC(=O)[C@@H]1C[C@@H](Oc2cc(-c3ccccc3)nc3cc(OC)ccc23)CN1C(=O)[C@@H](NC(=O)[C@@H](C)C1CCCCC1)C(C)(C)C)C(=O)O | –
22 | 0.009 | C=C[C@@H]1C[C@]1(NC(=O)[C@@H]1C[C@@H](Oc2cc(-c3ccccc3)nc3cc(OC)ccc23)CN1C(=O)[C@@H](NC(=O)NC1CCCCC1)C(C)(C)C)C(=O)O | EC50 (Hepatitis C virus): 2.9 µM
23 | 0.041 | C=C[C@@H]1C[C@]1(NC(=O)[C@@H]1C[C@@H](Oc2cc(-c3ccccc3)nc3ccc(OC)cc23)CN1C(=O)[C@@H](NC(=O)[C@@H](NC(C)=O)C1CCCCC1)C(C)C)C(=O)O | –
24 | 0.018 | C=C[C@@H]1C[C@]1(NC(=O)[C@@H]1C[C@@H](Oc2cc(-c3ccccc3)nc3cc(OC)ccc23)CN1C(=O)[C@@H](NC(=O)[C@@H](N)C1CCCCC1)C(C)(C)C)C(=O)O | –
25 | 0.037 | C=C[C@@H]1C[C@]1(NC(=O)[C@@H]1C[C@@H](Oc2cc(-c3ccccc3)nc3cc(OC)ccc23)CN1C(=O)[C@@H](NC(=O)CC1CCCCC1)C(C)(C)C)C(=O)O | –
26 | 0.024 | C=C[C@@H]1C[C@]1(NC(=O)[C@@H]1C[C@@H](Oc2cc(-c3ccccc3)nc3cc(OC)ccc23)CN1C(=O)[C@@H](NC(=O)OC1CCC1)C(C)(C)C)C(=O)O | EC50 (Hepatitis C virus): 0.96 µM
27 | 0.005 | C=C[C@@H]1C[C@]1(NC(=O)[C@@H]1C[C@@H](Oc2cc(-c3ccccc3)nc3cc(OC)ccc23)CN1C(=O)[C@@H](NC(=O)NC1CCCC1)C(C)(C)C)C(=O)O | EC50 (Hepatitis C virus): 0.91 µM
28 | 0.008 | C=C[C@@H]1C[C@]1(NC(=O)[C@@H]1C[C@@H](Oc2cc(-c3ccccc3)nc3cc(OC)ccc23)CN1C(=O)[C@@H](NC(=O)NC(C)(C)C)C(C)(C)C)C(=O)O | EC50 (Hepatitis C virus): 1.22 µM
29 | 0.03 | C=C[C@@H]1C[C@]1(NC(=O)[C@@H]1C[C@@H](Oc2cc(-c3ccccc3)nc3cc(OC)ccc23)CN1C(=O)[C@@H](NC(=O)OC1CCCCC1)C(C)(C)C)C(=O)O | EC50 (Hepatitis C virus): 0.46 µM
30 | 0.148 | C=C[C@@H]1C[C@]1(NC(=O)[C@@H]1C[C@@H](Oc2cc(-c3ccccc3)nc3cc(OC)ccc23)CN1C(=O)[C@@H](OC(=O)NC1CCCC1)C(C)(C)C)C(=O)O | –
31 | 0.205 | C=C[C@@H]1C[C@]1(NC(=O)[C@@H]1C[C@@H](Oc2cc(-c3ccccc3)nc3cc(OC)ccc23)CN1C(=O)[C@@H](NC(=O)N(C)C(C)(C)C)C(C)(C)C)C(=O)O | –

Reference: ChEMBL document CHEMBL1149282, “A systematic approach to the optimization of substrate-based inhibitors of the hepatitis C virus NS3 protease: discovery of potent and specific tripeptide inhibitors” (J Med Chem, 2004)
